Results as given in US20050112573A1, “Method of detecting toxic substance” (priority 2001, published 2005).

Tested on: yeast genes (level of expressed mRNA)
Experiment: DNA chip analysis of expressed mRNA of yeast genes after 2 h culture with a toxic chemical substance
Format: cell-based, Saccharomyces cerevisiae S288C
Experimental: Yeast (Saccharomyces cerevtisiae S288C (α SUC2mal mel gap2 CUP1)) were cultured at 25° C. on YPD medium (yeast extract 1%, polypepton 2%, glucose 2%). One of toxic chemical substances was added to the cell at logarithmic growth phase, and the cell was further cultured for two hours. Cell was cultured without any chemical substance in the same condition, and was used as control. Concentrations of the chemical substances were defined to inhibit the growth of the yeast but not lead to death.
After the completion of cultivation, the culture was centrifuged to collect the cells. To the cells, sodium acetate buffer (50 mM sodium acetate, 10 mM EDTA, 1% SDS) was added, and the mixture was shaken at 65° C. for five minutes, followed by returning to room temperature, and obtaining the supernatant, which procedure was repeated two times. To the supernatant, ½ amount of a solution of phenol/chloroform was added, and the mixture was centrifuged to give a supernatant, which was added with an equal amount of chloroform, and the mixture was centrifuged to give a supernatant. To the supernatant, an equal amount of isopropanol containing 0.3 M sodium acetate was added, and the mixture was allowed to stand at room temperature for 30 minutes, after which the mixture was centrifuged to give a sediment of the whole RNAs. Seventy % ethanol was added to the sediment, and the mixture was again centrifuged to give a sediment, which was then dried and dissolved in water. mRNA was isolated from the whole RNAs as followings. In view of the fact that a poly A chain is attached to the 3′ terminus of mRNA, a polynucleotide having a poly T structure which was immobilized on the surface of latex beads was used to trap the mRNA, and then the mRNA was washed and eluted with spine column (Oligotex-dT30<Super>mRNA Purification Kit, Takara). Reverse transcription of the mRNA was conducted with a reverse transcriptase (Super Script II Reverse Transcriptase; catalogue No. 18064-014, GibcoBRL) using fluorescence-labeled nucleotides to give cDNAs that were introduced with Cy3-dUTP or Cy5-dUTP during the reverse transcription.
The labeled cDNAs were dissolved in TE buffer (10 mM Tris-HCl/1 mM EDTA, pH8.0), and the solution was dropped on the DNA chip containing the whole genes of yeast (DNA Chip Research Inc. Japan) so that the cDNAs were hybridized on the DNA chip at 65° C. for over 12 hours. The fluoresces intensity of the DNA chip was read with a scanner, and the ratio relative to the fluorescence intensity resulting from the absence of chemical substance was estimated as the following, which is shown in Tables 1 to 9: [formula]
In the Tables, “Intensity” indicated in the rightmost column is a value of the level of expressed mRNA of each gene in control cells as divided by the average level of the expressions of the whole genes.

COc1cc(CNC(=O)CCCCC=CC(C)C)ccc1O [(12), 8-methyl-N-vanillyl-6-nonenamide]
1.7: level of expressed mRNA in the presence of chemical substance/in its absence (gene YMR105C)
0.8: The level of expressed mRNA in the presence of chemical substance/absence: YHR181W (gene YHR181W) | The level of expressed mRNA in the presence of chemical substance/absence: YJL037W (gene YJL037W) | The level of expressed mRNA in the presence of chemical substance/absence: YJL049W (gene YJL049W) | level of expressed mRNA in the presence of chemical substance/in its absence (gene YJR142W) | level of expressed mRNA in the presence of chemical substance/in its absence (gene YJR148W) | The level of expressed mRNA in the presence of chemical substance/absence: YKL051W (gene YKL051W) | The level of expressed mRNA in the presence of chemical substance/absence: YKR040C (gene YKR040C) | The level of expressed mRNA in the presence of chemical substance/absence: YLR097C (gene YLR097C) | level of expressed mRNA in the presence of chemical substance/in its absence (gene YLR142W) | The level of expressed mRNA in the presence of chemical substance/absence: YLR415C (gene YLR415C) | The level of expressed mRNA in the presence of chemical substance/absence: YML041C (gene YML041C) | level of expressed mRNA in the presence of chemical substance/in its absence (gene YMR296C) | level of expressed mRNA in the presence of chemical substance/in its absence (gene YNL106C) | The level of expressed mRNA in the presence of chemical substance/absence: YNL181W (gene YNL181W) | The level of expressed mRNA in the presence of chemical substance/absence: YNL212W (gene YNL212W) | The level of expressed mRNA in the presence of chemical substance/absence: YNL253W (gene YNL253W) | The level of expressed mRNA in the presence of chemical substance/absence: YNL265C (gene YNL265C) | level of expressed mRNA in the presence of chemical substance/in its absence (gene YNR059W) | The level of expressed mRNA in the presence of chemical substance/absence: YOR022C (gene YOR022C) | The level of expressed mRNA in the presence of chemical substance/absence: YOR087W (gene YOR087W)
1.3: The level of expressed mRNA in the presence of chemical substance/absence: YJL017W (gene YJL017W) | level of expressed mRNA in the presence of chemical substance/in its absence (gene YMR271C) | level of expressed mRNA in the presence of chemical substance/in its absence (gene YNL012W) | level of expressed mRNA in the presence of chemical substance/in its absence (gene YNL037C) | level of expressed mRNA in the presence of chemical substance/in its absence (gene YOL058W)
0.6: The level of expressed mRNA in the presence of chemical substance/absence: YHL037C (gene YHL037C) | The level of expressed mRNA in the presence of chemical substance/absence: YHR095W (gene YHR095W) | level of expressed mRNA in the presence of chemical substance/in its absence (gene YHR137W) | The level of expressed mRNA in the presence of chemical substance/absence: YKL090W (gene YKL090W) | The level of expressed mRNA in the presence of chemical substance/absence: YKL097C (gene YKL097C) | level of expressed mRNA in the presence of chemical substance/in its absence (gene YLR180W) | The level of expressed mRNA in the presence of chemical substance/absence: YLR338W (gene YLR338W) | The level of expressed mRNA in the presence of chemical substance/absence: YLR339C (gene YLR339C) | The level of expressed mRNA in the presence of chemical substance/absence: YLR392C (gene YLR392C) | level of expressed mRNA in the presence of chemical substance/in its absence (gene YMR189W) | The level of expressed mRNA in the presence of chemical substance/absence: YNL176C (gene YNL176C) | The level of expressed mRNA in the presence of chemical substance/absence: YOR088W (gene YOR088W)
1.1: The level of expressed mRNA in the presence of chemical substance/absence: YHL021C (gene YHL021C) | level of expressed mRNA in the presence of chemical substance/in its absence (gene YHR037W) | level of expressed mRNA in the presence of chemical substance/in its absence (gene YHR190W) | level of expressed mRNA in the presence of chemical substance/in its absence (gene YIL033C) | level of expressed mRNA in the presence of chemical substance/in its absence (gene YIL154C) | level of expressed mRNA in the presence of chemical substance/in its absence (gene YJL196C) | The level of expressed mRNA in the presence of chemical substance/absence: YML029W (gene YML029W) | The level of expressed mRNA in the presence of chemical substance/absence: YML079W (gene YML079W) | level of expressed mRNA in the presence of chemical substance/in its absence (gene YML110C) | level of expressed mRNA in the presence of chemical substance/in its absence (gene YNL104C) | level of expressed mRNA in the presence of chemical substance/in its absence (gene YNR033W) | level of expressed mRNA in the presence of chemical substance/in its absence (gene YOL126C) | level of expressed mRNA in the presence of chemical substance/in its absence (gene YOR099W)
1.9: level of expressed mRNA in the presence of chemical substance/in its absence (gene YOL153C)
1.5: level of expressed mRNA in the presence of chemical substance/in its absence (gene YJR159W) | level of expressed mRNA in the presence of chemical substance/in its absence (gene YKR039W)
1.0: The level of expressed mRNA in the presence of chemical substance/absence: YHL006C (gene YHL006C) | level of expressed mRNA in the presence of chemical substance/in its absence (gene YHR092C) | The level of expressed mRNA in the presence of chemical substance/absence: YHR134W (gene YHR134W) | The level of expressed mRNA in the presence of chemical substance/absence: YJL097W (gene YJL097W) | level of expressed mRNA in the presence of chemical substance/in its absence (gene YJL132W) | The level of expressed mRNA in the presence of chemical substance/absence: YMR115W (gene YMR115W) | The level of expressed mRNA in the presence of chemical substance/absence: YMR160W (gene YMR160W) | The level of expressed mRNA in the presence of chemical substance/absence: YNL058C (gene YNL058C) | The level of expressed mRNA in the presence of chemical substance/absence: YNL063W (gene YNL063W) | level of expressed mRNA in the presence of chemical substance/in its absence (gene YNL169C) | level of expressed mRNA in the presence of chemical substance/in its absence (gene YNR019W) | level of expressed mRNA in the presence of chemical substance/in its absence (gene YOR336W)
1.2: level of expressed mRNA in the presence of chemical substance/in its absence (gene YMR272C) | level of expressed mRNA in the presence of chemical substance/in its absence (gene YNR002C) | level of expressed mRNA in the presence of chemical substance/in its absence (gene YOL143C) | level of expressed mRNA in the presence of chemical substance/in its absence (gene YOL157C) | level of expressed mRNA in the presence of chemical substance/in its absence (gene YOR136W)
0.7: The level of expressed mRNA in the presence of chemical substance/absence: YHR105W (gene YHR105W) | The level of expressed mRNA in the presence of chemical substance/absence: YHR180W (gene YHR180W) | The level of expressed mRNA in the presence of chemical substance/absence: YIL108W (gene YIL108W) | The level of expressed mRNA in the presence of chemical substance/absence: YIL127C (gene YIL127C) | level of expressed mRNA in the presence of chemical substance/in its absence (gene YIL167W) | level of expressed mRNA in the presence of chemical substance/in its absence (gene YJL088W) | The level of expressed mRNA in the presence of chemical substance/absence: YJR044C (gene YJR044C) | The level of expressed mRNA in the presence of chemical substance/absence: YLR226W (gene YLR226W) | level of expressed mRNA in the presence of chemical substance/in its absence (gene YLR307W) | The level of expressed mRNA in the presence of chemical substance/absence: YMR068W (gene YMR068W) | The level of expressed mRNA in the presence of chemical substance/absence: YMR071C (gene YMR071C) | level of expressed mRNA in the presence of chemical substance/in its absence (gene YNL322C) | The level of expressed mRNA in the presence of chemical substance/absence: YOR253W (gene YOR253W)
1.8: level of expressed mRNA in the presence of chemical substance/in its absence (gene YNL231C)
0.5: The level of expressed mRNA in the presence of chemical substance/absence: YJL032W (gene YJL032W) | level of expressed mRNA in the presence of chemical substance/in its absence (gene YLR300W) | The level of expressed mRNA in the presence of chemical substance/absence: YNL191W (gene YNL191W) | The level of expressed mRNA in the presence of chemical substance/absence: YNL194C (gene YNL194C) | The level of expressed mRNA in the presence of chemical substance/absence: YOR155C (gene YOR155C)
0.9: The level of expressed mRNA in the presence of chemical substance/absence: YHR083W (gene YHR083W) | The level of expressed mRNA in the presence of chemical substance/absence: YIL165C (gene YIL165C) | level of expressed mRNA in the presence of chemical substance/in its absence (gene YIR035C) | The level of expressed mRNA in the presence of chemical substance/absence: YJR030C (gene YJR030C) | The level of expressed mRNA in the presence of chemical substance/absence: YKL059C (gene YKL059C) | level of expressed mRNA in the presence of chemical substance/in its absence (gene YKL067W) | The level of expressed mRNA in the presence of chemical substance/absence: YKL094W (gene YKL094W) | The level of expressed mRNA in the presence of chemical substance/absence: YKL100C (gene YKL100C) | level of expressed mRNA in the presence of chemical substance/in its absence (gene YLR273C) | The level of expressed mRNA in the presence of chemical substance/absence: YLR427W (gene YLR427W) | The level of expressed mRNA in the presence of chemical substance/absence: YML013W (gene YML013W) | The level of expressed mRNA in the presence of chemical substance/absence: YML118W (gene YML118W) | The level of expressed mRNA in the presence of chemical substance/absence: YMR114C (gene YMR114C) | The level of expressed mRNA in the presence of chemical substance/absence: YMR258C (gene YMR258C) | The level of expressed mRNA in the presence of chemical substance/absence: YNL026W (gene YNL026W) | level of expressed mRNA in the presence of chemical substance/in its absence (gene YNL045W) | level of expressed mRNA in the presence of chemical substance/in its absence (gene YNL130C) | The level of expressed mRNA in the presence of chemical substance/absence: YNL200C (gene YNL200C) | The level of expressed mRNA in the presence of chemical substance/absence: YNL276C (gene YNL276C) | The level of expressed mRNA in the presence of chemical substance/absence: YNR051C (gene YNR051C) | The level of expressed mRNA in the presence of chemical substance/absence: YOL026C (gene YOL026C) | The level of expressed mRNA in the presence of chemical substance/absence: YOL030W (gene YOL030W) | level of expressed mRNA in the presence of chemical substance/in its absence (gene YOR130C) | The level of expressed mRNA in the presence of chemical substance/absence: YOR138C (gene YOR138C) | The level of expressed mRNA in the presence of chemical substance/absence: YOR267C (gene YOR267C) | The level of expressed mRNA in the presence of chemical substance/absence: YOR325W (gene YOR325W)
